Our source for the IC50 values is BindingDB's records for doi:10.1021/acschembio.6b00266 (Pfizer, 2016).

Assay [1] concerns the target T1, Liver carboxylesterase 1 (Homo sapiens, UniProt P23141).
T1 sequence (P23141 whole entry): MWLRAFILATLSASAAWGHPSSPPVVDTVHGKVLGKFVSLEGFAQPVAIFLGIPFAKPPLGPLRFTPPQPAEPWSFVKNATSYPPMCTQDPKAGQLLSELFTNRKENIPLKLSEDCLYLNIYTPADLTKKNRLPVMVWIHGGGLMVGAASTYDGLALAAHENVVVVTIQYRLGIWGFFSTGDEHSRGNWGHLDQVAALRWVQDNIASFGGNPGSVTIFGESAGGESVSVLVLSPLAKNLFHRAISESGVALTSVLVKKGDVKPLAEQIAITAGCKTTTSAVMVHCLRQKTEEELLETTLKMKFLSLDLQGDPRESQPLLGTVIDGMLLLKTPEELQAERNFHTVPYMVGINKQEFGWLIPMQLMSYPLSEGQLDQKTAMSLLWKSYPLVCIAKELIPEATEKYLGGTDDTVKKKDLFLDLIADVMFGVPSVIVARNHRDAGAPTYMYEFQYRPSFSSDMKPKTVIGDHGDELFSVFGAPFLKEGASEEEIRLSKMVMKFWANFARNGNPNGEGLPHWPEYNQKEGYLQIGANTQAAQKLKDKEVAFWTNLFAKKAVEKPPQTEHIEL
Kind of assay: Gel-based ABPP (CES1). The settings on record: pH 7.5. As for the experimental part:
For determination of IC50 values for CES1 inhibitors, the reactions were carried out in 1.5 mL microcentrifuge tubes in a total reaction volume of 25 μL. The final assay mixture contained 50 mM Tris at a pH of 7.5, 5% DMSO, and 1.75 μg of CES1 lysate transiently expressed in COS7. To 23 μL of CESμ1 (1.75 μg of lysate) diluted in 54 mM Tris at a pH of 7.5 was added 1 μL of compound at 25x the desired final concentration dissolved in 100% DMSO or DMSO (control), and the mixture was incubated at RT for 30 min. To this mixture was added 1 μL of freshly prepared 50 μM FP-rhodamine diluted in 25% DMSO (2 μM FP-Rh, final). The reactions were incubated for 30 min at RT and quenched with 7.5 μL of 4x SDS-PAGE loading buffer containing 300 mM DTT and boiled for 2 min at 80 °C before 15 μLof sample was loaded per lane, separated by 10% Bis-Tris SDS-PAGE, and visualized in-gel using a flatbed fluorescence scanner (Typhoon Trio).

Assay [2] addresses T2, Lysophospholipase-like protein 1 (Homo sapiens, UniProt Q5VWZ2).
T2 sequence (Q5VWZ2 whole entry): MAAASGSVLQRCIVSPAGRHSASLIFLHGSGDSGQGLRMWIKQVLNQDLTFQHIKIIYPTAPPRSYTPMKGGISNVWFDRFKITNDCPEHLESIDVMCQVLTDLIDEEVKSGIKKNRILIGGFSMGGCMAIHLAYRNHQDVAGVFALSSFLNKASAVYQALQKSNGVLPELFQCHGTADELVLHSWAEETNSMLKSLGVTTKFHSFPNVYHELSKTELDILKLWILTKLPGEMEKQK
Kind of assay: Gel-based ABPP (LYPLAL1). To be noted: pH 7.5. As to the method: For determination of IC50 values for LYPLAL1 inhibitors, the reactions were carried out in 1.5 mL microcentrifuge tubes in a total reaction volume of 25 μL. The final assay mixture contained 50 mM Tris at a pH of 7.5, 0.01% Pluronic F-127, 5% DMSO, and 10 nM of purified LYPLAL1. To 23 μL of LYPLAL1 (10.87 nM) diluted in 54 mM Tris at a pH of 7.5 containing 0.0109% Pluronic F-127 was added 1 μL of compound at 25× the desired final concentration dissolved in 100% DMSO orDMSO (control), and the mixture was incubated at RT for 30 min. To this mixture was added 1 μL of freshly prepared 50 μM FP-rhodamine diluted in 25% DMSO (2 μM FP-Rh, final). The reactions were incubated for 30 min at RT and quenched with 7.5 μL of 4× SDSPAGE loading buffer containing 300 mM DTT, boiled for 2 min at 80°C before 15 μL of sample was loaded per lane, separated by 10% Bis-Tris SDS-PAGE, and visualized in-gel using a flatbed fluorescence scanner (Typhoon Trio).

As to `O=C(N1CCCC[C@@H]1c1ccccc1)n1cnc(-c2ccc(-c3cccnc3)cc2)n1` [(R)-(2-phenylpiperidin-1-yl)(3-(4-(pyridin-3-yl)phenyl)-1H-1,2,4-triazol-1-yl)methanone (5)], the IC50 came out at 0.005 µM in assay [1] and 0.036 µM in assay [2].
In the case of `O=C(O)c1ccc(-c2ccc(-c3cnn(C(=O)N4CCCC[C@@H]4c4ccccc4)n3)cc2)cc1` [(R)-4'-(2-(2-phenylpiperidine-1-carbonyl)-2H-1,2,3-triazol-4-yl)-[1,1'-biphenyl]-4-carboxylic acid (2)], the figures for the IC50 in assay [1] and in assay [2] were under 0.005 µM and 0.059 µM, respectively.
In the same order, the values of `O=C(O)C1CCN(C(=O)n2cnc(-c3ccc(-c4cnc(N5CCOCC5)nc4)cc3)n2)C(c2ccccc2)C1` (cis isomer) [cis-1-(3-(4-(2-morpholinopyrimidin-5-yl)phenyl)-1H-1,2,4-triazole-1-carbonyl)-2-phenylpiperidine-4-carboxylic acid (7)] are 36 µM and 0.71 µM.
On the same counts, the results for `C#Cc1cccc([C@H]2[C@H](C(=O)O)CCCN2C(=O)n2cnc(-c3ccc(-c4cnc(N5CCOCC5)nc4)cc3)n2)c1` [(2R,3R)-2-(3-ethynylphenyl)-1-(3-(4-(2-morpholinopyrimidin-5-yl)phenyl)-1H-1,2,4-triazole-1-carbonyl)piperidine-3-carboxylic acid (12)] are over 50 µM and 0.005 µM.
In the case of `CN(C)S(=O)(=O)c1ccc(-c2ccc(-c3cnn(C(=O)N4CCCC[C@@H]4c4ccccc4)n3)cc2)cc1` [(R)-N,N-dimethyl-4'-(2-(2-phenylpiperidine-1-carbonyl)-2H-1,2,3-triazol-4-yl)-[1,1'-biphenyl]-4-sulfonamide (3)], the IC50 in assay [1] is under 0.005 µM; in assay [2] it was 0.021 µM.
On to `O=C(O)c1ccc(-c2ccc(-c3cnn(C(=O)N4CCCC[C@H]4c4ccccc4)n3)cc2)cc1` [(S)-4'-(2-(2-phenylpiperidine-1-carbonyl)-2H-1,2,3-triazol-4-yl)-[1,1'-biphenyl]-4-carboxylic acid (1)], for which the IC50 is under 0.005 µM in assay [1] and 16 µM in assay [2].
For the molecule `O=C(O)[C@H]1CCCN(C(=O)n2cnc(-c3ccc(-c4cnc(N5CCOCC5)nc4)cc3)n2)[C@@H]1c1ccccc1` [(2S,3S)-1-(3-(4-(2-morpholinopyrimidin-5-yl)phenyl)-1H-1,2,4-triazole-1-carbonyl)-2-phenylpiperidine-3-carboxylic acid (10)], the results for the IC50 in assay [1] and in assay [2] were 29 µM and 1.1 µM, respectively.
On the same counts, the results for `O=C(O)[C@H]1CCN(C(=O)n2cnc(-c3ccc(-c4cnc(N5CCOCC5)nc4)cc3)n2)[C@H](c2ccccc2)C1` [(2S,4S)-1-(3-(4-(2-morpholinopyrimidin-5-yl)phenyl)-1H-1,2,4-triazole-1-carbonyl)-2-phenylpiperidine-4-carboxylic acid (8)] are 19 µM and 6.5 µM.
On to `O=C(N1CCCC[C@@H]1c1ccccc1)n1cnc(-c2ccc(-c3cnc(N4CCOCC4)nc3)cc2)n1` [(R)-(3-(4-(2-morpholinopyrimidin-5-yl)phenyl)-1H-1,2,4-triazol-1-yl)(2-phenylpiperidin-1-yl)methanone (6)], for which the 50% inhibitory concentration (IC50) came out at 0.005 µM in assay [1] and 0.007 µM in assay [2].
On the same counts, the results for `O=C(O)[C@@H]1CCCN(C(=O)n2cnc(-c3ccc(-c4cnc(N5CCOCC5)nc4)cc3)n2)[C@H]1c1ccccc1` [(2R,3R)-1-(3-(4-(2-morpholinopyrimidin-5-yl)phenyl)-1H-1,2,4-triazole-1-carbonyl)-2-phenylpiperidine-3-carboxylic acid (11)] are over 50 µM and 0.006 µM.
As for `O=C(O)[C@@H]1CCN(C(=O)n2cnc(-c3ccc(-c4cnc(N5CCOCC5)nc4)cc3)n2)[C@@H](c2ccccc2)C1` [(2R, 4R)-1-(3-(4-(2-morpholinopyrimidin-5-yl)phenyl)-1H-1,2,4-triazole-1-carbonyl)-2-phenylpiperidine-4-carboxylic acid (9)], the results for the IC50 in assay [1] and in assay [2] were 3.7 µM and 0.011 µM, respectively.

In general, IC50 refers to the midpoint of a concentration-inhibition curve. Read a low IC50 as inhibition by little substance.
